Measured values taken from ChEMBL document CHEMBL5726093, “Piperidine derivatives” (2019).

Biological target: Cathepsin S (Homo sapiens, UniProt P25774)
Test: Cathepsin Enzyme Inhibition Assay: Enzyme activity is measured by observing the increase in fluorescence intensity caused by cleavage of a peptide substrate containing a fluorophore whose emission is quenched in the intact peptide.Assay buffer: 100 mM potassium phosphate pH 6.5, EDTA-Na 5 mM, Triton X-100 0.001%, DTT 5 mM.Enzymes (all at 1 nM): human and mouse Cathepsin S, Cat K, Cat B, Cat L.Substrate (20 Z-Val-Val-Arg-AMC, except for Cat K which uses Z-Leu-Arg-AMC (both from Bachem).Z=Benzyloxycarbonyl.AMC=7-Amino-4-Methyl-Coumarin.DTT=dithiothreitol.Final volume: 100 μL.Excitation 360 nm, Emission 465 nm.Enzyme is added to the substance dilutions in 96-well microtitre plates and the reaction is started with substrate. Fluorescence emission is measured over 20 minutes, during which time a linear increase is observed in the absence of inhibitor.

Chain of Cathepsin S (P25774 whole entry): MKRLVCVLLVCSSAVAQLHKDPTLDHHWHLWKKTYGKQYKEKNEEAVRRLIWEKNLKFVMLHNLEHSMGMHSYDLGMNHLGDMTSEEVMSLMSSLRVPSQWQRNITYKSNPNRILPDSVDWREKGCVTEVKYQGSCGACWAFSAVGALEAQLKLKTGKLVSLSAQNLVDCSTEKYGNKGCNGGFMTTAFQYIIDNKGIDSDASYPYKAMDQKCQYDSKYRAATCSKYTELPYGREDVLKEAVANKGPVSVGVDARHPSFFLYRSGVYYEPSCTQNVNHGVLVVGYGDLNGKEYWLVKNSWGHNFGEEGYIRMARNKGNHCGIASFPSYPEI

Cn1c(=O)n(C2CCN(Cc3nc(-c4ccc(C(F)(F)F)cc4)[nH]c3-c3ccccc3)CC2)c2ccccc21
IC50: 985 nM
